Measured values reported in patent US10154997B2, “Treatment of parasitic diseases using KDAC inhibitor compounds” (Washington University, priority 2015, dated 2018).
Where two headings read alike, the source gives them in different places.

What was measured:
H. contortus = experiment: Endoparasites dose response assay (Endoparasites_DR), H. contortus; details: Haemonchus contortus, 96 h
L929 mouse fibroblast = experiment: Cytotoxicity viability assay (CYT vt); assay type: cell-based
[1] = test system: parasites (nematodes and protists); experiment: Compound screening in parasites, summary statements
B. malayi = experiment: Endoparasites dose response assay (Endoparasites_DR), B. malayi; design: species or system Brugia malayi; details: nematode B. malayi
human cancer cell lines = experiment: Activity on human cancer cell lines; assay type: cell-based

With `CCCCCCCC(=O)SCC/C=C/[C@@H]1CC(=O)NCc2nc(cs2)C2=N[C@@](C)(CS2)C(=O)N[C@@H](C(C)C)C(=O)O1` [SD-L-148, Largazole, reference compound] the IC50 (H. contortus) was 7.1 µM and the IC50 (L929 mouse fibroblast; Mus musculus, L929) was 0.101 µM.
With `CC(C)(C)OC(=O)Nc1cccc(C(=O)/C=C/c2ccc(/C=C/C(=O)NO)cc2)c1` [MC2780] the pan-parasite potential ([1]; across parasites screened) was “demonstrated pan-parasite potential”.
In the case of `Cn1cc(/C=C/C(=O)c2cccc(NC(=O)OC(C)(C)C)c2)cc1C(=O)NO` [MC2776], the “efficacy in the protists” value ([1]; any of the protists) is reported as “did not show any efficacy”, the EC50 (B. malayi) is reported as 4.39 µM and the IC50 (L929 mouse fibroblast; host-cell line, read-out: activity in the host-cell line) is reported as over 10 µM. For the same compound, the IC50 (human cancer cell lines) was over 10 µM.
